Here are results for twelve molecules from ChEMBL document CHEMBL1795309, “Thiophenyl oxime-derived phosphonates as nano-molar class C beta-lactamase inhibitors reducing MIC of imipenem against Pseudomonas aeruginosa and Acinetobacter baumannii” (Bioorg Med Chem Lett, 2011).

The target of one data set is Beta-lactamase SHV-5 (Klebsiella pneumoniae, UniProt P0A3M1). Description: Inhibition of Klebsiella pneumoniae beta lactamase SHV-5.
Data set [1] has as its target Beta-lactamase (Pseudomonas aeruginosa (strain ATCC 15692 / PAO1 / 1C / PRS 101 / LMG12228), UniProt P24735). As to the kind of experiment: Inhibition of Pseudomonas aeruginosa beta lactamase AmpC.
Data set [2] is described as follows: Inhibition of Pseudomonas aeruginosa beta lactamase TEM-1.
In data set [3] the target is Beta-lactamase (Enterobacter cloacae, UniProt P05364). As to the kind of experiment: Inhibition of Enterobacter cloacae beta lactamase P99.
Chain of Beta-lactamase (Enterobacter cloacae, UniProt P05364) (P05364 whole entry): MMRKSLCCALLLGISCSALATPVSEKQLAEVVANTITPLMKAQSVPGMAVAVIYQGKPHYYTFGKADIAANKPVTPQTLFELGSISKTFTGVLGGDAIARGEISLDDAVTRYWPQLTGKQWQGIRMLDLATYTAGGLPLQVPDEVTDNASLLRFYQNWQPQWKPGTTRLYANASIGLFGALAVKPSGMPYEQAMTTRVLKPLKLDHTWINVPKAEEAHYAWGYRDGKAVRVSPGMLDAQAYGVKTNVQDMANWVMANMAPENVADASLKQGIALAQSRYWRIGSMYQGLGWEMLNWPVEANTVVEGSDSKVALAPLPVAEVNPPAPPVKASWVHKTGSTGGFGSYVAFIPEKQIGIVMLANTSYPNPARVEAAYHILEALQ
Data set [4] addresses Beta-lactamase (Acinetobacter baumannii, UniProt Q8RLA6). As to the kind of experiment: Inhibition of Acinetobacter baumannii beta lactamase OXA-40.
For data set [5], the system named is Pseudomonas aeruginosa. As to the kind of experiment: Antimicrobial activity against imipenem-resistant Pseudomonas aeruginosa expressing beta lactamase AmpC assessed as reduction in imipenim MIC. Type of data set: functional, organism-based.
Data set [6] deals with Pseudomonas aeruginosa. Description: Antimicrobial activity against imipenem-resistant Pseudomonas aeruginosa expressing beta lactamase AmpC assessed as reduction in imipenim MIC up to 100 uM. Type of data set: functional, organism-based.
The subject of data set [7] is Acinetobacter baumannii. Description: Antimicrobial activity against imipenem-resistant Acinetobacter baumannii CL6188 at 100 uM. Type of data set: functional, organism-based.
The subject of data set [8] is Acinetobacter baumannii. Description: Antimicrobial activity against imipenem-resistant Acinetobacter baumannii CL6188 assessed as reduction in imipenim MIC. It is filed as functional, organism-based.
The subject of data set [9] is Pseudomonas aeruginosa. As to the kind of experiment: Antimicrobial activity against imipenem-resistant Pseudomonas aeruginosa expressing beta lactamase AmpC up to 100 uM. Type of data set: functional, organism-based.
The nature of data set [10]: Volume of distribution in mouse at 2.5 mg/kg, iv. Type of data set: ADME, organism-based. Set-up: dose 2.5 mg/kg, route intravenous. The settings on record: in vivo.
Another data set has as its system Mus musculus. As to the kind of experiment: Dose normalized AUC in mouse at 2.5 mg/kg, iv. Type of data set: ADME, organism-based. Set-up: dose 2.5 mg/kg, route intravenous. The settings on record: in vivo.
Data set [11] is described as follows: Half life in mouse at 2.5 mg/kg, iv. The settings on record: in vivo. It is filed as ADME, organism-based. On the set-up: dose 2.5 mg/kg, route intravenous.
The nature of data set [12]: Clearance in mouse at 2.5 mg/kg, iv. The settings on record: in vivo. It is filed as ADME, organism-based. Set-up: dose 2.5 mg/kg, route intravenous.

pIC50: −log10 of the molar value. The source made the active and inactive calls. The calls are words filed in the database; no cut-off is given here. Bounds are passed on as bounds.

In general, pIC50 refers to the negative decadic logarithm of the IC50, by convention in mol/L. In general, Vd refers to a proportionality between amount in the body and measured concentration, not a real space. By half-life is commonly meant the time in which the quantity being followed falls by half. The low end stands for fast loss, the high end for slow loss. What is called clearance is a measure of how efficiently the substance is removed, as volume per time. Read a high clearance as a high capacity for elimination.

Chain of Beta-lactamase (Acinetobacter baumannii, UniProt Q8RLA6) (Q8RLA6 whole entry): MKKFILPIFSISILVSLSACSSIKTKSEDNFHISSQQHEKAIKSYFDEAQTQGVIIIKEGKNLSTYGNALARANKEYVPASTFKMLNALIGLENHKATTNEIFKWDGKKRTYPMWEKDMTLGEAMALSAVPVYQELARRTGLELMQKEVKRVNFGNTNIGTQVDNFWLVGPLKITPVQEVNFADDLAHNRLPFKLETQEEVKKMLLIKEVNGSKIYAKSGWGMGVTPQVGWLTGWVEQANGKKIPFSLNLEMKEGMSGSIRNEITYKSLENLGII
Chain of Beta-lactamase SHV-5 (P0A3M1 whole entry): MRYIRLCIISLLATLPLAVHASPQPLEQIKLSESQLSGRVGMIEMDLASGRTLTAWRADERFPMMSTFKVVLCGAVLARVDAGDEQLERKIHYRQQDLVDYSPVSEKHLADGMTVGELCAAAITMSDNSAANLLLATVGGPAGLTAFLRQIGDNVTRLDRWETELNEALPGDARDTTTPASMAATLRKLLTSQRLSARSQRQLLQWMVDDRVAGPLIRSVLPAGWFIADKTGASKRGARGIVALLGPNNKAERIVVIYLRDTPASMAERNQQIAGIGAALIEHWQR
Chain of Beta-lactamase (Pseudomonas aeruginosa (strain ATCC 15692 / PAO1 / 1C / PRS 101 / LMG12228), UniProt P24735) (P24735 whole entry): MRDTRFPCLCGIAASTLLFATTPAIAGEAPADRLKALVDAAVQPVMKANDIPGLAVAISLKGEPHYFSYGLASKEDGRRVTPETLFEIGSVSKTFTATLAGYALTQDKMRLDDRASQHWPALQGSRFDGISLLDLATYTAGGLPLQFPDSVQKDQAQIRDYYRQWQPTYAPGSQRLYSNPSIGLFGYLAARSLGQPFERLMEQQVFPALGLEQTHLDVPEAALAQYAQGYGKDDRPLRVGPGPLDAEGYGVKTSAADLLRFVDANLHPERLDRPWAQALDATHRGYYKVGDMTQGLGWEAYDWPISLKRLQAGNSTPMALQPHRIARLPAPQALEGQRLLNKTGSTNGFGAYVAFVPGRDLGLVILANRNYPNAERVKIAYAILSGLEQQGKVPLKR

As to `CON=C(C(=O)NCP(=O)(O)Oc1ccc(C#N)c(F)c1)c1cccs1`, the pIC50 was below 4.30 against Beta-lactamase SHV-5; 8.02 on Beta-lactamase [1]; below 4.30 in data set [2]; 7.41 against Beta-lactamase [3]; below 4.30 at Beta-lactamase [4].

Turning to `CO/N=C(\C(=O)NCP(=O)(O)Oc1ccc(C#N)c(F)c1)c1cnc(N)s1`, the pIC50 against Beta-lactamase SHV-5 is below 4.30; against Beta-lactamase [1] it was 5.82; in [2], below 4.30; against Beta-lactamase [3] it was 6.10; against Beta-lactamase [4], below 4.30.

For `CO/N=C(/C(=O)NCP(=O)(O)Oc1ccc(C#N)c(F)c1)c1ccc(Cl)s1`, in the data set on Pseudomonas aeruginosa [5], the Activity result is “Dose-dependent effect”. Further, the outcome in the data set with Pseudomonas aeruginosa [6] was Active. For the same molecule, the pIC50 against Beta-lactamase [1] is 8.30; in [2], 4.80; at Beta-lactamase [3] it was 7.72; on Beta-lactamase [4] it was 4.51. For the same molecule, the result with Acinetobacter baumannii [7], in the data set with Acinetobacter baumannii [8] and in the data set on Pseudomonas aeruginosa [9] was inactive.

As for `CO/N=C(\C(=O)NCP(=O)(O)O)c1cccs1`, the pIC50 was below 4.30 against Beta-lactamase SHV-5; 5.19 against Beta-lactamase [1]; below 4.30 in data set [2]; 4.68 on Beta-lactamase [3]; below 4.30 on Beta-lactamase [4].

Regarding `N#Cc1ccc(OP(=O)([O-])CNC(=O)/C(=N\OCCC[n+]2ccccc2)c2cccs2)cc1F` (stereo in doubt; 6b), the pIC50 on Beta-lactamase SHV-5 was below 4.30; against Beta-lactamase [1], 7.06; in data set [2], below 4.30; at Beta-lactamase [3] it was 6.77; against Beta-lactamase [4], below 4.30.

Consider `CO/N=C(\C(=O)NCP(=O)(O)Oc1ccc(C#N)c(F)c1)c1cnc(NC(=O)C(Cl)(Cl)Cl)s1` (stereo in doubt; 2a), for which the pIC50 against Beta-lactamase SHV-5 is 4.60; against Beta-lactamase [1], 5.52; in data set [2] it was below 4.30; against Beta-lactamase [3] it was 6.47; on Beta-lactamase [4] it was below 4.90.

In the case of `CO/N=C(\C(=O)NCP(=O)(O)Oc1ccc(C#N)c(F)c1)c1cccs1`, the negative logarithm of the IC50 (pIC50) is below 4.90 at Beta-lactamase SHV-5; 7.34 at Beta-lactamase [1]; below 4.30 in data set [2]; 7.00 on Beta-lactamase [3]; 4.59 at Beta-lactamase [4].

`CO/N=C(/C(=O)NCP(=O)(O)O)c1cccs1`: the pIC50 on Beta-lactamase SHV-5 was below 4.30; against Beta-lactamase [1] it was 5.49; in data set [2] it was below 4.30; against Beta-lactamase [3] it was 5.52; on Beta-lactamase [4], below 4.30.

With `CO/N=C(/C(=O)NCP(=O)(O)Oc1ccc(C#N)c(F)c1)c1cccs1`, the pIC50 at Beta-lactamase SHV-5 is 4.66; against Beta-lactamase [1] it was 8.12; in data set [2], 4.55; at Beta-lactamase [3], 7.49; on Beta-lactamase [4] it was 4.77. For the same molecule, the Activity entry in the data set with Pseudomonas aeruginosa [5] was “Dose-dependent effect”. In addition, the outcome in the data set with Pseudomonas aeruginosa [6] and in the data set with Acinetobacter baumannii [8] was Active. The same molecule showed a Vd in data set [10] of 1 L/kg. Besides, the outcome in the data set on Acinetobacter baumannii [7] and with Pseudomonas aeruginosa [9] was inactive. Also, the AUC/dose in the data set on Mus musculus stood at 0.98 µM/h/kg/mg. Moreover, in data set [11], the half-life is 32.4 min. Besides, in data set [12], the clearance is 43 mL/min/kg.

With `CO/N=C(\C(=O)NCP(=O)(O)Oc1ccc(C#N)c(F)c1)c1cnc(NC(=O)C(Cl)(Cl)Cl)s1` (stereo in doubt; 2b), the pIC50 on Beta-lactamase SHV-5 was 4.82; against Beta-lactamase [1] it was 5.52; against Beta-lactamase [3], 6.15; at Beta-lactamase [4] it was below 4.90.

For the molecule `N#Cc1ccc(OP(=O)(O)CNC(=O)C(=NO)c2cccs2)cc1F`, the pIC50 on Beta-lactamase SHV-5 was 4.57; at Beta-lactamase [1], 6.70; in [2] it was 4.64; against Beta-lactamase [3], 7.00; on Beta-lactamase [4], 4.68.

Take `N#Cc1ccc(OP(=O)([O-])CNC(=O)/C(=N\OCCC[n+]2ccccc2)c2cccs2)cc1F` (stereo in doubt; 6a): the negative-log IC50 (pIC50) against Beta-lactamase SHV-5 is below 4.30; on Beta-lactamase [1] it was 7.68; in data set [2], 4.77; against Beta-lactamase [3], 7.06; on Beta-lactamase [4] it was 4.57.
